According to ChEMBL document CHEMBL4359906, “Design and synthesis of new N-terminal fatty acid modified-antimicrobial peptide analogues with potent in vitro biological activity” (Eur J Med Chem, 2019):
In brackets after ≈: the same amount, converted by molar mass. Activity calls are given as the source filed them. No cut-off for these calls is given here. Where a SMILES comes first, the peptide text is derived from it. Bridges are numbered along the chain shown (N, C = ends). [ ]: non-standard residue; d: D form. The star is where a group is joined. X1 = CC[C@H](C)CCCCC(=O)*; Dab = NCC[C@H](N)C(=O)O

What was measured:
Pseudomonas aeruginosa = test: Antibacterial activity against Pseudomonas aeruginosa ATCC 27853 after 18 hrs by CLSI based broth microdilution method; format: functional
Staphylococcus aureus [1] = test: Antibacterial activity against Staphylococcus aureus ATCC 25923 after 18 hrs by CLSI based broth microdilution method; format: functional; settings: ATCC 25923, 18 h
Klebsiella pneumoniae = test: Antibacterial activity against Klebsiella pneumoniae ATCC 700603 after 18 hrs by CLSI based broth microdilution method; format: functional
Bacillus subtilis = test: Antibacterial activity against Bacillus subtilis ATCC 23857 after 18 hrs by CLSI based broth microdilution method; format: functional; settings: ATCC 23857, 18 h
Staphylococcus aureus [2] = test: Antibacterial activity against methicillin-resistant Staphylococcus aureus 936 after 18 hrs by CLSI based broth microdilution method; format: functional; settings: Staphylococcus aureus, 936, 18 h
Escherichia coli [3] = test: Antibacterial activity against Escherichia coli ATCC 43837 after 18 hrs by CLSI based broth microdilution method; format: functional
Escherichia coli [4] = test: Antibacterial activity against Escherichia coli ATCC 25922 after 18 hrs by CLSI based broth microdilution method; format: functional
Staphylococcus aureus [5] = test: Ratio of antibacterial activity against Staphylococcus aureus ATCC 25923 in presence of KCl to antibacterial activity against Staphylococcus aureus ATCC 25923; format: functional
Staphylococcus aureus [6] = test: Ratio of antibacterial activity against Staphylococcus aureus ATCC 25923 in presence of FeCl3 to antibacterial activity against Staphylococcus aureus ATCC 25923; format: functional
Staphylococcus aureus [7] = test: Antibiofilm activity against Staphylococcus aureus ATCC 25923 at 1 to 2 times of MIC after 24 hrs by crystal violet staining based assay; format: functional, organism-based
DNA = test: Binding affinity to Escherichia coli ATCC 25922 genomic DNA at 4 x MIC after 30 mins by agarose gel electrophoresis; format: nucleic-acid assay
Escherichia coli [8] = test: Antibacterial activity against Escherichia coli ATCC 25922 after 18 hrs in presence of KCl by CLSI based broth microdilution method (reference value: 4 microM); format: functional; settings: ATCC 25922, 18 h
Escherichia coli [9] = test: Ratio of antibacterial activity against Escherichia coli ATCC 25922 in presence of FeCl3 to antibacterial activity against Escherichia coli ATCC 25922; format: functional
Escherichia coli [10] = test: Antibacterial activity against Escherichia coli ATCC 25922 after 18 hrs in presence of NaCl by CLSI based broth microdilution method (reference value: 4 microM); format: functional; settings: ATCC 25922, 18 h
Escherichia coli [11] = test: Disruption of membrane integrity in Escherichia coli ATCC 25922 assessed as membrane damage by measuring PI fluorescence at 4 times of MIC incubated for 1 hr by PI dye based flow cytometric analysis (reference value: 1.35%); format: functional
Staphylococcus aureus [12] = test: Ratio of antibacterial activity against Staphylococcus aureus ATCC 25923 in presence of MgCl2 to antibacterial activity against Staphylococcus aureus ATCC 25923; format: functional
Escherichia coli [13] = test: Antibacterial activity against Escherichia coli ATCC 25922 after 18 hrs in presence of FeCl3 by CLSI based broth microdilution method (reference value: 4 microM); format: functional; settings: ATCC 25922, 18 h
Escherichia coli [14] = test: Ratio of antibacterial activity against Escherichia coli ATCC 25922 in presence of MgCl2 to antibacterial activity against Escherichia coli ATCC 25922; format: functional
Escherichia coli [15] = test: Ratio of antibacterial activity against Escherichia coli ATCC 25922 in presence of NaCl to antibacterial activity against Escherichia coli ATCC 25922; format: functional
Staphylococcus aureus [16] = test: Antibacterial activity against Staphylococcus aureus ATCC 25923 after 18 hrs in presence of KCl by CLSI based broth microdilution method (reference value: 16 microM); format: functional; settings: ATCC 25923, 18 h
Escherichia coli [17] = test: Induction of membrane disruption in Escherichia coli ATCC 25922 assessed as corrugated membrane surface at 4 times of MIC after 2 hrs by SEM analysis; format: functional, organism-based
Escherichia coli [18] = test: Induction of membrane disruption in Escherichia coli ATCC 25922 assessed as degeneration in membrane at 4 times of MIC after 2 hrs by SEM analysis; format: functional, organism-based
Staphylococcus aureus [19] = test: Antibacterial activity against Staphylococcus aureus ATCC 25923 after 18 hrs in presence of MgCl2 by CLSI based broth microdilution method (reference value: 16 microM); format: functional; settings: ATCC 25923, 18 h
Staphylococcus aureus [20] = test: Antibacterial activity against Staphylococcus aureus ATCC 25923 after 18 hrs in presence of NaCl by CLSI based broth microdilution method (reference value: 16 microM); format: functional; settings: ATCC 25923, 18 h
Escherichia coli [21] = test: Ratio of antibacterial activity against Escherichia coli ATCC 25922 in presence of KCl to antibacterial activity against Escherichia coli ATCC 25922; format: functional
Staphylococcus aureus [22] = test: Antibacterial activity against Staphylococcus aureus ATCC 25923 after 18 hrs in presence of FeCl3 by CLSI based broth microdilution method (reference value: 16 microM); format: functional; settings: ATCC 25923, 18 h
Escherichia coli [23] = test: Induction of membrane disruption in Escherichia coli ATCC 25922 assessed as rough membrane surface at 4 times of MIC after 2 hrs by SEM analysis; format: functional, organism-based
Staphylococcus aureus [24] = test: Ratio of antibacterial activity against Staphylococcus aureus ATCC 25923 in presence of NaCl to antibacterial activity against Staphylococcus aureus ATCC 25923; format: functional
Escherichia coli [25] = test: Antibacterial activity against Escherichia coli ATCC 25922 after 18 hrs in presence of MgCl2 by CLSI based broth microdilution method (reference value: 4 microM); format: functional; settings: ATCC 25922, 18 h
Escherichia coli [26] = test: Induction of ROS generation in Escherichia coli ATCC 25922; format: functional, organism-based
Escherichia coli [27] = test: Disruption of membrane integrity in Escherichia coli ATCC 25922 assessed as membrane damage by measuring PI fluorescence at 2 times of MIC incubated for 1 hr by PI dye based flow cytometric analysis (reference value: 1.35%); format: functional
Escherichia coli [28] = test: Induction of membrane disruption in Escherichia coli ATCC 25922 assessed as fracture in membrane at 4 times of MIC after 2 hrs by SEM analysis; format: functional, organism-based
[29] = Klebsiella pneumoniae, 700603, 18 h

Structure (SMILES): CC1(C)S[C@@H]2[C@H](NC(=O)Cc3ccccc3)C(=O)N2[C@H]1C(=O)O [PENICILLIN G]
- MIC (Pseudomonas aeruginosa; ATCC 27853, 18 h): > 128 µM
- MIC (Staphylococcus aureus [1]): < 1 µM
- MIC (Klebsiella pneumoniae; [29]): > 128 µM
- MIC (Bacillus subtilis): < 1 µM
- MIC (Staphylococcus aureus [2]): 32 µM (≈ 10.7 µg/mL)
- MIC (Escherichia coli [3]; ATCC 43837, 18 h): 8 µM (≈ 2.68 µg/mL)
- MIC (Escherichia coli [4]; ATCC 25922, 18 h): 64 µM (≈ 21.4 µg/mL)

Structure (SMILES): CCCC(=O)NCC(=O)N[C@@H](CC(C)C)C(=O)N[C@@H](CC(C)C)C(=O)N[C@H](CCCCN)C(=O)N[C@@H](CCCNC(=N)N)C(=O)N[C@H](C(=O)N[C@H](CCCCN)C(=O)N[C@H](C(=O)N[C@@H](CC(C)C)C(=O)N[C@@H](CC(C)C)C(N)=O)[C@@H](C)O)[C@@H](C)CC
- MIC (Pseudomonas aeruginosa; ATCC 27853, 18 h): 128 µM (≈ 157 µg/mL)
- MIC (Staphylococcus aureus [1]): > 128 µM
- MIC (Klebsiella pneumoniae; [29]): > 128 µM
- MIC (Bacillus subtilis): 128 µM (≈ 157 µg/mL)
- MIC (Staphylococcus aureus [2]): > 128 µM
- MIC (Escherichia coli [3]; ATCC 43837, 18 h): > 128 µM
- MIC (Escherichia coli [4]; ATCC 25922, 18 h): > 128 µM

Structure (SMILES): CCCCCC(=O)NCC(=O)N[C@@H](CC(C)C)C(=O)N[C@@H](CC(C)C)C(=O)N[C@H](CCCCN)C(=O)N[C@@H](CCCNC(=N)N)C(=O)N[C@H](C(=O)N[C@H](CCCCN)C(=O)N[C@H](C(=O)N[C@@H](CC(C)C)C(=O)N[C@@H](CC(C)C)C(N)=O)[C@@H](C)O)[C@@H](C)CC
- MIC (Pseudomonas aeruginosa; ATCC 27853, 18 h): 32 µM (≈ 40.1 µg/mL)
- MIC (Staphylococcus aureus [1]): > 128 µM
- MIC (Klebsiella pneumoniae; [29]): > 128 µM
- MIC (Bacillus subtilis): 16 µM (≈ 20 µg/mL)
- MIC (Staphylococcus aureus [2]): > 128 µM
- MIC (Escherichia coli [3]; ATCC 43837, 18 h): > 128 µM
- MIC (Escherichia coli [4]; ATCC 25922, 18 h): 128 µM (≈ 160 µg/mL)

Structure (SMILES): CC[C@H](C)CCCCC(=O)N[C@@H](CCN)C(=O)N[C@H](C(=O)N[C@@H](CCN)C(=O)N[C@H]1CCNC(=O)[C@H]([C@@H](C)O)NC(=O)[C@H](CCN)NC(=O)[C@H](CCN)NC(=O)[C@H](CC(C)C)NC(=O)[C@@H](Cc2ccccc2)NC(=O)[C@H](CCN)NC1=O)[C@@H](C)O (X1-[Dab]T[Dab][Dab][Dab][dF]L[Dab][Dab]T; lactam 4-C)
- Ratio (Staphylococcus aureus [5]): 2 - 4
- Ratio (Staphylococcus aureus [6]): 2 - 4
- inhibition (Staphylococcus aureus [7]): Active
- Activity (DNA): inactive
- MIC (Escherichia coli [8]): 16 µM
- Ratio (Escherichia coli [9]): 2 - 4
- MIC (Escherichia coli [10]): 16 µM
- Activity (Escherichia coli [11]): 8.49%
- Ratio (Staphylococcus aureus [12]): 2 - 4
- MIC (Escherichia coli [13]): 4 µM
- Ratio (Escherichia coli [14]): 2 - 4
- Ratio (Escherichia coli [15]): 2 - 4
- MIC (Staphylococcus aureus [16]): 16 µM
- Activity (Escherichia coli [17]): Active
- MIC (Pseudomonas aeruginosa; ATCC 27853, 18 h): 2 µM (≈ 2.41 µg/mL)
- Activity (Escherichia coli [18]): Active
- MIC (Staphylococcus aureus [19]): 32 µM
- MIC (Staphylococcus aureus [1]): 16 µM (≈ 19.3 µg/mL)
- MIC (Staphylococcus aureus [20]): 64 µM
- Ratio (Escherichia coli [21]): 2 - 4
- MIC (Klebsiella pneumoniae; [29]): 8 µM (≈ 9.63 µg/mL)
- MIC (Staphylococcus aureus [22]): 16 µM
- Activity (Escherichia coli [23]): Active
- Ratio (Staphylococcus aureus [24]): 2 - 4
- MIC (Escherichia coli [25]): 8 µM
- MIC (Bacillus subtilis): 8 µM (≈ 9.63 µg/mL)
- Activity (Escherichia coli [26]): inactive
- MIC (Staphylococcus aureus [2]): 16 µM (≈ 19.3 µg/mL)
- Activity (Escherichia coli [27]): 3.47%
- MIC (Escherichia coli [3]; ATCC 43837, 18 h): 2 µM (≈ 2.41 µg/mL)
- MIC (Escherichia coli [4]; ATCC 25922, 18 h): 4 µM (≈ 4.81 µg/mL)
- Activity (Escherichia coli [28]): Active

Structure (SMILES): CC[C@H](C)[C@H](NC(=O)[C@H](CCCNC(=N)N)NC(=O)[C@@H](CCCCN)NC(=O)[C@H](CC(C)C)NC(=O)[C@H](CC(C)C)NC(=O)CN)C(=O)N[C@H](CCCCN)C(=O)N[C@H](C(=O)N[C@@H](CC(C)C)C(=O)N[C@@H](CC(C)C)C(N)=O)[C@@H](C)O (H-GLL[dK]RI[dK]TLL-NH2)
- MIC (Pseudomonas aeruginosa; ATCC 27853, 18 h): 64 µM (≈ 73.8 µg/mL)
- MIC (Staphylococcus aureus [1]): > 128 µM
- MIC (Klebsiella pneumoniae; [29]): > 128 µM
- MIC (Bacillus subtilis): 64 µM (≈ 73.8 µg/mL)
- MIC (Staphylococcus aureus [2]): > 128 µM
- MIC (Escherichia coli [3]; ATCC 43837, 18 h): > 128 µM
- MIC (Escherichia coli [4]; ATCC 25922, 18 h): > 128 µM

Structure (SMILES): CN[C@H](CC(C)C)C(=O)N[C@H]1C(=O)N[C@@H](CC(N)=O)C(=O)N[C@H]2C(=O)N[C@H]3C(=O)N[C@H](C(=O)N[C@H](C(=O)O)c4cc(O)cc(O)c4-c4cc3ccc4O)[C@H](O)c3ccc(c(Cl)c3)Oc3cc2cc(c3O[C@@H]2O[C@H](CO)[C@@H](O)[C@H](O)[C@H]2O[C@H]2C[C@](C)(N)[C@H](O)[C@H](C)O2)Oc2ccc(cc2Cl)[C@H]1O [VANCOMYCIN]
- MIC (Pseudomonas aeruginosa): inactive
- MIC (Staphylococcus aureus [1]): < 1 µM
- MIC (Klebsiella pneumoniae): inactive
- MIC (Bacillus subtilis): < 1 µM
- MIC (Staphylococcus aureus [2]): < 1 µM
- MIC (Escherichia coli [3]): inactive
- MIC (Escherichia coli [4]): inactive
